Experiments:
HeLa and U87MG xenograft = test: In vivo NIR fluorescence imaging, results not split by tumor model (organs, tumor-to-background ratios, retention); parameters: species or system mice
Procedure: (§1) To evaluate the tumor-targeting characteristics of DZ-TCO derivatives, DZ-1-TCO, DZ-Lys-TCO, and DZ-Lys-PEG4-TCO were administered to HeLa and U87MG xenograft-bearing nude mice (100 μL of 50 μM, n = 3 per group). In vivo fluorescence imaging was conducted at 4, 24, 48, 72, and 96 h after TCO compound injection.
(§2) Female BALB/c nude mice (4–6 weeks old; 14–20 g), obtained from Beijing Vital River Laboratory Animal Technology Co., Ltd. (Beijing, China), were subcutaneously inoculated with 5 × 10^6 HeLa or U87MG cells suspended in 100 μL PBS into the right flank. Tumor growth was monitored every 2–3 days using digital calipers, and experiments were initiated when tumor volumes reached approximately 150–300 mm^3, calculated using the formula Volume = (length × width^2)/2.
To assess the tumor-targeting capability and clearance kinetics of DZ-TCO precursors, 100 µL of each compound ([…] in PBS) was administered intravenously via the tail vein. Whole-body fluorescence imaging was performed at predetermined time points ([…]) using the IVIS Spectrum imaging system (PerkinElmer, Shelton, CT, USA) (excitation/emission, 745/820 nm) with automatic subtraction of background fluorescence during the acquisition. Fluorescence signals were acquired under standardized exposure settings, and region-of-interest (ROI) analysis was conducted using Living Image software version 4.4 (PerkinElmer) to quantify fluorescence intensity in the tumor and major organs.

U87MG xenograft = test: In vivo NIR fluorescence imaging, U87MG xenograft-bearing nude mice
Procedure: as §1, §2
(§3) To assess the tumor-targeting capability and clearance kinetics of DZ-TCO precursors, 100 µL of each compound ([…] in PBS) was administered intravenously via the tail vein. Whole-body fluorescence imaging was performed at predetermined time points (4, 24, 48, 72, and 96 h post-injection) using the IVIS Spectrum imaging system (PerkinElmer, Shelton, CT, USA) (excitation/emission, 745/820 nm) with automatic subtraction of background fluorescence during the acquisition. Fluorescence signals were acquired under standardized exposure settings, and region-of-interest (ROI) analysis was conducted using Living Image software version 4.4 (PerkinElmer) to quantify fluorescence intensity in the tumor and major organs.

HeLa xenograft = test: In vivo NIR fluorescence imaging, HeLa xenograft-bearing nude mice
Procedure: as §1, §2, §3

[1] = In vitro stability in 50% fetal bovine serum (FBS); assay type: in vitro ADME
Procedure: (§4) ^68GaCl3 (5 mL, 20 mCi) and DOTA-Tz (50 μg) were mixed in a reaction vial. The pH was adjusted to 4.0–4.5 by adding 1 M sodium acetate, and the mixture was heated at 95 °C for 15 min without further purification. Radiochemical purity was confirmed by RP-HPLC. In vitro stability of ^68Ga-DOTA-Tz was assessed by incubating aliquots in 50% FBS or 50% PBS at 37 °C for 30 min, 1 h, 2 h, and 4 h. The partition coefficient (log p) was determined by mixing 1 mL of n-octanol with 1 mL of PBS containing the tracer, vortexing, and centrifuging at 3000 rpm for 5 min. Samples (0.1 mL) from both the organic and aqueous phases were withdrawn, and their radioactivity was measured using a γ-counter (PerkinElmer Wizard, Shelton, CT, USA).

[2] = In vitro stability in 50% PBS; assay type: physicochemical; details: 37 °C
Procedure: as §4

[3] = Partition coefficient (log p), n-octanol/PBS; assay type: physicochemical
Procedure: as §4

Row | tumor-to-background fluorescence ratio (HeLa and U87MG xenograft; 4 h) | tumor-to-background fluorescence ratio (HeLa and U87MG xenograft; 48 h) | time of peak tumor fluorescence signal (HeLa and U87MG xenograft; post-injection) | tumor fluorescence signal remained detectable (time post-injection) (HeLa and U87MG xenograft; post-injection) | tumor fluorescence intensity (U87MG xenograft; 4 h post-injection) | tumor fluorescence intensity (U87MG xenograft; 24 h post-injection) | tumor fluorescence intensity (U87MG xenograft; 48 h post-injection) | tumor fluorescence intensity (HeLa xenograft; 4 h post-injection) | tumor fluorescence intensity (HeLa xenograft; 24 h post-injection) | tumor fluorescence intensity (HeLa xenograft; 48 h post-injection) | radiochemical purity in FBS at 4 h ([1]; 50% FBS, 37 °C) | radiochemical stability after 4 h ([1]; PBS and serum) | radiochemical purity in PBS after 4 h [2] | log p [3] | Compound
1 | 695.00 ± 59.15 | 720.00 ± 64.21 | 24 h | 72 h | 5.44 × 10^9 p/s/cm^2/sr | 6.12 × 10^9 p/s/cm^2/sr | 4.82 × 10^9 p/s/cm^2/sr | 6.38 × 10^9 p/s/cm^2/sr | 6.93 × 10^9 p/s/cm^2/sr | 5.57 × 10^9 p/s/cm^2/sr |  |  |  |  | CC1(C)C(=CC=C2CCCC(C=CC3=[N+](CCCCS(=O)(=O)[O-])c4ccccc4C3(C)C)=C2Cl)N(CCCCCC(=O)NCCCNC(=O)OC2CCC=CCCC2)c2ccccc21 (centres unmarked) [DZ-1-TCO]
2 |  |  |  |  |  |  |  |  |  |  | 85.88 ± 7.55% | > 85% | 94.48 ± 1.48% | −2.87 ± 0.02 | Cc1nnc(-c2ccc(OCCOCCOCCOCCNC(=O)CN3CCN(CC(=O)[O-])CCN(CC(=O)[O-])CCN(CC(=O)[O-])CC3)cc2)nn1.[68Ga+3] [^68Ga-DOTA-Me-Tz]

Source: publication PMC12735951, “A Bioorthogonal TCO–Tetrazine-Based Pretargeted PET/NIRF Platform Enabling High-Contrast Tumor Imaging” (Pharmaceuticals, 2025)
